This note sets out measurements from US6150373A, “Bicyclic nitrogen heterocycles” (Hoffmann-La Roche Inc., priority 1998, dated 2000).

Where a name gives a salt, the structure may show the parent alone.

The target of this experiment is human recombinant p56^lck (Homo sapiens, UniProt P06239). Description: Inhibition of T-cell tyrosine kinase p56^lck (incorporation of 33P from [γ-^33 P] ATP into peptide substrate). The format is biochemical. The note with it: 10 μM ATP, 20 μM peptide substrate, 30° C., 60 minutes, pH 7.5. From the text:
As mentioned earlier, the compounds of formula I, the pharmaceutically acceptable salts of basic compounds of formula I with acids, and the pharmaceutically acceptable salts of acidic compounds of formula I with bases, are all inhibitors of the T-cell tyrosine kinase p56^lck which will down-regulate T-cell activation leading to immunosuppression and decrease inflammation. Therefore, the compounds of the invention are anti-inflammatory agents which can be used in combating the inflammatory condition which occurs in various diseases, as well as immunosuppressives which can be used, for example, for preventing graft rejection in transplantation therapy.
Reaction mixtures (25 μl) containing human recombinant p56^lck, 10 mM MnCl2, 10-μM ATP, 0.2 mM sodium vanadate, 20 μM peptide substrate (AlaGluGluGluIleTyr-GlyGlu-PheGluAlaLysLysLysLys, [γ-^33 P] ATP (1000-2000 cpm/pmol) in 25 mM HEPES buffer (pH 7.5) and 0.1% Triton X-100 are incubated at 30° C. for 60 minutes and the reaction is then stopped by the addition of 10 μl of 2% orthophosphoric acid. Radiolabelled peptide is separated from unreacted [γ-^33 P] ATP by filtration through Millipore Multiscreen phosphocellulose cation exchange paper filters. Bound peptide is washed with 0.5% orthophosphoric acid and incorporated radioactivity is determined by scintillation spectrometry.
The degree of enzyme blockade at each concentration of test compound is calculated from the following equation: [formula]
The IC50 value is that concentration of test compound which reduces by 50% the protein kinase-induced incorporation of the radiolabel under the test conditions described earlier.

Chain of human recombinant p56^lck (P06239 whole entry): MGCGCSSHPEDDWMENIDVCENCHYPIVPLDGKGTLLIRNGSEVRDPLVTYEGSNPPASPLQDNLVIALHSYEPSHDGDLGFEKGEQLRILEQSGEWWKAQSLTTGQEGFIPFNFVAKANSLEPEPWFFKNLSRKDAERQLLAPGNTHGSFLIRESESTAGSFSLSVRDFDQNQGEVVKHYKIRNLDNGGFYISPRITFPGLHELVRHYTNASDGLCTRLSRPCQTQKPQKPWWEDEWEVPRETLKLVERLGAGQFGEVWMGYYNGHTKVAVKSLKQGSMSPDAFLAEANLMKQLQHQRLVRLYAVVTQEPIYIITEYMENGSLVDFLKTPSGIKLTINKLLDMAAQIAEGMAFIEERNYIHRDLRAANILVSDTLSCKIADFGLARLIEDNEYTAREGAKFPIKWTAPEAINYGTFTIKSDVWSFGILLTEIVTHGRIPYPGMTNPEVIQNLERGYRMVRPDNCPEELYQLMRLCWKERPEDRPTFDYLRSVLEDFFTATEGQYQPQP

In the case of `CCN(CC)CCOc1ccc(Nc2ncc3c(n2)N(C)C(=O)N(c2c(Cl)cccc2Cl)C3)cc1` [Example 1, 3-(2,6-dichlorophenyl)-7-[4-[2-(diethylamino)ethoxy]anilino]-3,4-dihydro-1-methylpyrimido[4,5-d]pyrimidin-2(1H)-one], the concentration for half-maximal inhibition (IC50) came to 10 nM.

`CCN(CC)CCOc1ccc(Nc2ncc3c(n2)N(c2ccccc2)C(=O)N(c2c(Cl)cccc2Cl)C3)cc1` [Example 7, 3-(2,6-dichlorophenyl)-7-[4-[2-(diethylamino)ethoxy]anilino]-3,4-dihydro-1-phenylpyrimido[4,5-d]pyrimidin-2(1H)-one]: the IC50 was 0.6 nM.

On to `CCN(CC)CCOc1ccc(Nc2ncc3c(n2)N(Cc2cccnc2)C(=O)N(c2c(Cl)cccc2Cl)C3)cc1` [Example 10, 3-(2,6-dichlorophenyl)-7-[4-[2-(diethylamino)ethoxy]anilino]-3,4-dihydro-1-[(3-pyridyl)-methyl]pyrimido[4,5-d]pyrimidin-2(1H)-one trifluoroacetate], for which the IC50 is 19 nM.

For `O=C1N(c2c(Cl)cccc2Cl)Cc2cnc(Nc3ccncc3)nc2N1c1ccccc1` [Example 22, 3-(2,6-dichlorophenyl)-3,4-dihydro-1-phenyl-7-[(4-pyridyl)amino]pyrimido[4,5-d]pyrimidin-2(1H)-one], the IC50 was determined as 265 nM.

`NCCc1cccc(N2C(=O)N(c3c(Cl)cccc3Cl)Cc3cnc(Nc4ccccc4)nc32)c1` [Example 38, 1-[3-(2-aminoethyl)phenyl]-7-anilino-3-(2,6-dichlorophenyl)-3,4-dihydropyrimido[4,5-d]pyrimidin-2(1H)-one]: the IC50 was found to be 0.03 nM.

Regarding `NCCc1cccc(N2C(=O)N(c3ccccc3Br)Cc3cnc(Nc4ccccc4)nc32)c1` [Example 50, 1-[3-(2-aminoethyl)phenyl]-7-anilino-3-(2-bromophenyl)-3,4-dihydropyrimido[4,5-d]pyrimidin-2(1H)-one], the IC50 was determined as 6 nM.

Consider `O=C1N(c2ccccc2Br)Cc2cnc(Nc3ccccc3)nc2N1c1ccc(CO)cc1` [Example 63, 7-anilino-3-(2-bromophenyl)-3,4-dihydro-1-[4-(hydroxymethyl)phenyl]pyrimido[4,5-d]pyrimidin-2(1H)-one], for which the half-inhibitory concentration (IC50) came to 17 nM.

For the compound `CCN(CC)CCOc1ccc(Nc2ncc3c(n2)N(c2cccc(CCN(C)C)c2)C(=O)N(c2ccc(Cl)cc2Cl)C3)cc1` [Example 82, 3-(2,4-dichlorophenyl)-7-[4-[2-(diethylamino)ethoxy]anilino]-3,4-dihydro-1-[3-(2-(dimethylamino)ethyl)phenyl]pyrimido[4,5-d]pyrimidin-2(1H)-one], the IC50 worked out at 0.4 nM.

As for `CCC(CC)(CN)c1cccc(N2C(=O)N(c3c(Cl)cccc3Cl)Cc3cnc(Nc4ccccc4)nc32)c1` [Example 85, 1-[3-(1-aminomethyl-1-ethyl-propyl)-phenyl]-3-(2,6-dichloro-phenyl)-7-phenylamino-3,4-dihydro-pyrimido[4,5-d]pyrimidin-2(1H)-one trifluoroacetate], the IC50 came out at 7 nM.

In general, IC50 refers to the concentration that gives 50% inhibition.
